Source: PubChem BioAssay (NCI)
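Test compounds were applied to cells in 96-well plates for 48 hours at 5 doses. At the TGI there is no net growth.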

Key:
Assay in all cases: NCI tumour cell line growth inhibition, 48 h
M14 melanoma = tested on: M14 melanoma
HOP-62 NSCLC = tested on: HOP-62 NSCLC
SK-MEL-28 melanoma = tested on: SK-MEL-28 melanoma
HL-60(TB) leukemia = tested on: HL-60(TB) leukemia
BT-549 breast = tested on: BT-549 breast
OVCAR-8 ovarian = tested on: OVCAR-8 ovarian
CCRF-CEM leukemia = tested on: CCRF-CEM leukemia
CAKI-1 renal = tested on: CAKI-1 renal
NCI-H23 lung = tested on: NCI-H23 lung
SK-OV-3 ovarian = tested on: SK-OV-3 ovarian
SNB-19 CNS = tested on: SNB-19 CNS

Compound	TGI (M14 melanoma) [µM]	TGI (HOP-62 NSCLC) [µM]	TGI (SK-MEL-28 melanoma) [µM]	TGI (HL-60(TB) leukemia) [µM]	TGI (BT-549 breast) [µM]	TGI (OVCAR-8 ovarian) [µM]	TGI (CCRF-CEM leukemia) [µM]	TGI (CAKI-1 renal) [µM]	TGI (NCI-H23 lung) [µM]	TGI (SK-OV-3 ovarian) [µM]	TGI (SNB-19 CNS) [µM]
C=CCCCCCCCCCOC1C=CC(OC(C)=O)C(COC(C)=O)O1 (stereo not drawn)	88.9	> 100	> 100	> 100	> 100	43.4	> 100	> 100	> 100	> 100	> 100
CC(=O)N1c2ccccc2C(C)C1c1[nH]c2ccccc2c1C (stereo not drawn)	42.5	36.6	49.3	44.4	58.1	57.3	> 100	70.6	> 100	43.9	> 100
c1ccc(-c2cc(-c3cccs3)c(-c3cccs3)o2)cc1	> 100	> 100	> 100	> 100	> 100	> 100	> 100	> 100	> 100	> 100	> 100
CCc1nc2ccc(C(F)(F)F)cc2[nH]c1=O	> 100	> 100	> 100	> 100	> 100	> 100	> 100	> 100	> 100	> 100	> 100
COc1ccc2cc(C(=O)NCCCNC(=O)c3ccc4cc(OC)ccc4c3)ccc2c1	> 100	42.1	> 100	> 100	> 100	> 66.3	> 100	> 100	> 100	> 65	30.6
COC(=O)c1cc(C(=CCC[C@H]2CC[C@@]3(C)C(CCC4C3CC[C@@]3(C)C4CC[C@@H]3C(C)CCCC(C)C)C2)c2cc(Cl)c(OC(=O)c3ccccc3)c(C(=O)OC)c2)cc(Cl)c1OC(=O)c1ccccc1 (stereo partly drawn)	> 10	> 10	> 10	> 10	> 10	> 10	> 10	> 10	> 10	> 10	> 10
CC[C@@]12C=CC(=S)N(CCSc3ccccc3)[C@@H]1c1c(n(S(=O)(=O)c3ccc(OC)cc3)c3ccccc13)CC2	> 100	> 100	> 100	> 100	> 100	> 100	> 100	> 100	> 100	> 100	> 100
CCN(CC)C(=O)N1CN(c2ccccc2)C2(CCN(CCCSc3ccc(F)cc3)CC2)C1=O	15.3		37.1	19.4	31.4	54.4	> 100	> 100	22.4	63	> 100
O=[N+]([O-])c1ccc(Cl)cc1N/N=C/c1cccc2cccnc12	> 100	> 100	> 100	> 100	> 100	> 100	> 100	> 100	> 100	> 100	> 100
C(=C\c1cc(-c2ccc3ccccc3n2)nc2ccc3ccccc3c12)/c1ccc2ccccc2n1	> 100	> 100	> 100	> 100	> 100	> 100	> 100	> 100		> 100	> 100
Cn1c(=O)c2c(nc(Nc3ccc(Cl)cc3)n3c(=O)n(-c4ccccc4)c(=O)n23)n(C)c1=O	> 100	> 100	> 100	> 100	> 100	> 100	> 100	> 100	> 100		> 100
Cc1ccc(S(=O)(=O)N2CCNCCN(S(=O)(=O)c3ccc(C)cc3)CCN(S(=O)(=O)c3ccc(C)cc3)CC2)cc1	> 100	> 100	> 100	> 100	> 100	> 100	> 100	> 100	> 100	> 100	> 100
Cc1nnc(-n2c(O)cc(=O)n(-c3ccccc3)c2=S)nc1/C=C/c1ccc(N(C)C)cc1	> 100	> 100	> 50.6	7.1	> 70.7	> 80.2	> 100	> 57	69.4	> 72	> 63
CCN1CCC(O)(c2ccc(Oc3ccc(C)cc3)cc2)C(C(=O)c2ccc(Oc3ccc(C)cc3)cc2)C1 (stereo not drawn)	30.6	35.5	23.3	3.7	22.4	28.2	21.8	25.8	30.2	29.7	27.2
C=C(C(=O)OC)c1cc2ccccc2n1S(=O)(=O)c1ccccc1	9.55	11.1	5.79	10.2	5.12	8.42	4.18	2.4	11.5	26	34
S=C(Nc1ccccn1)Nc1ccccc1Cl	> 100	> 100	> 100	> 100	> 100	> 100	> 100	> 100	> 100	> 100	> 31.6
Cc1ccc(C(=O)Nc2ccc(S(=O)(=O)O)c3cc(S(=O)(=O)O)cc(S(=O)(=O)O)c23)cc1NC(=O)c1cccc(NC(=O)Nc2cccc(C(=O)Nc3cc(C(=O)Nc4ccc(S(=O)(=O)O)c5cc(S(=O)(=O)O)cc(S(=O)(=O)O)c45)ccc3C)c2)c1 (tested in a mixture with another compound)	> 50		> 50	> 50	> 50	> 50	> 50	> 50	> 50	> 50	> 50
O=C(N/N=C\c1ccccc1)Nc1cccc2ccccc12	49.1	37.2	51.5	> 100	98.3	> 100	> 100	> 100	> 100		> 100
O=C1CCCC2=C1CC1=C(CCCC1=O)N2c1ccccc1	> 100		> 100	> 100	> 100	> 100	> 100	> 100	> 100	> 100	> 100
